Test results published in patent US9522907B2, “Anticancer agent and process for the preparation thereof” (COUNCIL OF SCIENTIFIC & INDUSTRIAL RESEARCH, priority 2014, dated 2016).

Assays:
MALME-3M = assay: NCI in vitro cytotoxicity, MALME-3M; conditions: Homo sapiens
Excerpt: (§1) For these compounds results are expressed as growth inhibition (GI50) values as per NCI protocol.

NCI/ADR-RES = assay: NCI in vitro cytotoxicity, NCI/ADR-RES; conditions: Homo sapiens
Excerpt: as §1

NCI-H226 = assay: NCI in vitro cytotoxicity, NCI-H226; conditions: Homo sapiens
Excerpt: as §1

IGROV 1 = assay: NCI in vitro cytotoxicity, IGROV 1; conditions: Homo sapiens
Excerpt: as §1

OVCAR-4 = assay: NCI in vitro cytotoxicity, OVCAR-4; conditions: Homo sapiens
Excerpt: as §1

HCT-116 = assay: NCI in vitro cytotoxicity, HCT-116; conditions: Homo sapiens
Excerpt: as §1

MDA-MB-435 = assay: NCI in vitro cytotoxicity, MDA-MB-435; conditions: Homo sapiens
Excerpt: as §1

SF-268 = assay: NCI in vitro cytotoxicity, SF-268; conditions: Homo sapiens
Excerpt: as §1

NCI-H23 = assay: NCI in vitro cytotoxicity, NCI-H23; conditions: Homo sapiens
Excerpt: as §1

M14 = assay: NCI in vitro cytotoxicity, M14; conditions: Homo sapiens
Excerpt: as §1

A498 = assay: NCI in vitro cytotoxicity, A498; conditions: Homo sapiens
Excerpt: as §1

SN 12C = assay: NCI in vitro cytotoxicity, SN 12C; conditions: Homo sapiens, SN12C
Excerpt: as §1

T-47D = assay: NCI in vitro cytotoxicity, T-47D; conditions: Homo sapiens, T47D
Excerpt: as §1

DU-145 = assay: NCI in vitro cytotoxicity, DU-145; conditions: Homo sapiens
Excerpt: as §1

SF-295 = assay: NCI in vitro cytotoxicity, SF-295; conditions: Homo sapiens
Excerpt: as §1

UO-31 = assay: NCI in vitro cytotoxicity, UO-31; conditions: Homo sapiens
Excerpt: as §1

SNB-75 = assay: NCI in vitro cytotoxicity, SNB-75; conditions: Homo sapiens
Excerpt: as §1

SK-MEL-5 = assay: NCI in vitro cytotoxicity, SK-MEL-5; conditions: Homo sapiens
Excerpt: as §1

PC-3 = assay: NCI in vitro cytotoxicity, PC-3; conditions: Homo sapiens
Excerpt: as §1

MDA-MB-231/ATCC = assay: NCI in vitro cytotoxicity, MDA-MB-231/ATCC; conditions: Homo sapiens
Excerpt: as §1

A549/ATCC = assay: NCI in vitro cytotoxicity, A549/ATCC; conditions: Homo sapiens
Excerpt: as §1

MDA-MB-468 = assay: NCI in vitro cytotoxicity, MDA-MB-468; conditions: Homo sapiens
Excerpt: as §1

U251 = assay: NCI in vitro cytotoxicity, U251; conditions: Homo sapiens, U-251
Excerpt: as §1

CCRF-CEM = assay: NCI in vitro cytotoxicity, CCRF-CEM; conditions: Homo sapiens
Excerpt: as §1

SF-539 = assay: NCI in vitro cytotoxicity, SF-539; conditions: Homo sapiens
Excerpt: as §1

NCI-H460 = assay: NCI in vitro cytotoxicity, NCI-H460; conditions: Homo sapiens
Excerpt: as §1

UACC-62 = assay: NCI in vitro cytotoxicity, UACC-62; conditions: Homo sapiens
Excerpt: as §1

HOP-62 = assay: NCI in vitro cytotoxicity, HOP-62; conditions: Homo sapiens
Excerpt: as §1

EKVX = assay: NCI in vitro cytotoxicity, EKVX; conditions: Homo sapiens
Excerpt: as §1

SR (leukemia cell line) = assay: NCI in vitro cytotoxicity, SR; conditions: Homo sapiens
Excerpt: as §1

OVCAR-3 = assay: NCI in vitro cytotoxicity, OVCAR-3; conditions: Homo sapiens
Excerpt: as §1

CAKI-1 = assay: NCI in vitro cytotoxicity, CAKI-1; conditions: Homo sapiens
Excerpt: as §1

TK-10 = assay: NCI in vitro cytotoxicity, TK-10; conditions: Homo sapiens
Excerpt: as §1

NCI-H522 = assay: NCI in vitro cytotoxicity, NCI-H522; conditions: Homo sapiens
Excerpt: as §1

HL-60 (TB) = assay: NCI in vitro cytotoxicity, HL-60 (TB); type: cell-based; conditions: Homo sapiens, Leukemia
HCT-15 = assay: NCI in vitro cytotoxicity, HCT-15; conditions: Homo sapiens
Excerpt: as §1

SW-620 = assay: NCI in vitro cytotoxicity, SW-620; conditions: Homo sapiens
Excerpt: as §1

MOLT-4 = assay: NCI in vitro cytotoxicity, MOLT-4; conditions: Homo sapiens
Excerpt: as §1

SNB-19 = assay: NCI in vitro cytotoxicity, SNB-19; conditions: Homo sapiens
Excerpt: as §1

SK-MEL-2 = assay: NCI in vitro cytotoxicity, SK-MEL-2; conditions: Homo sapiens
Excerpt: as §1

ACHN = assay: NCI in vitro cytotoxicity, ACHN; conditions: Homo sapiens
Excerpt: as §1

HOP-92 = assay: NCI in vitro cytotoxicity, HOP-92; conditions: Homo sapiens
Excerpt: as §1

HS 578T = assay: NCI in vitro cytotoxicity, HS 578T; conditions: Homo sapiens
Excerpt: as §1

In the case of `COc1cc(-c2nc(-c3ccc(-c4nc5cc(F)ccc5[nH]4)cc3)no2)cc(OC)c1OC` [2i, 3-(4-(5-Fluoro-1H-benzo[d]imidazol-2-yl)phenyl)-5-(3,4,5-trimethoxyphenyl)-1,2,4-oxadiazole], the GI50 (MALME-3M) is reported as 2.32 µM, the GI50 (NCI/ADR-RES) is reported as 2.49 µM and the GI50 (NCI-H226) is reported as 2.72 µM. The GI50 (IGROV 1) was 3.81 µM, the GI50 (OVCAR-4) was 2.82 µM and the GI50 (HCT-116) was 2.13 µM. For the same compound, the GI50 (MDA-MB-435) was 2.73 µM, the GI50 (SF-268) was 3.99 µM and the GI50 (NCI-H23) was 2.5 µM. It also gave a GI50 (M14) of 3.23 µM, a GI50 (A498) of 4.19 µM and a GI50 (SN 12C) of 3.59 µM. For the same compound, the GI50 (T-47D) was 2.72 µM, the GI50 (DU-145) was 3.96 µM and the GI50 (SF-295) was 2.31 µM. It also gave a GI50 (UO-31) of 2.51 µM, a GI50 (SNB-75) of 7.74 µM and a GI50 (SK-MEL-5) of 2.22 µM. It also gave a GI50 (PC-3) of 2.33 µM, a GI50 (MDA-MB-231/ATCC) of 2.39 µM and a GI50 (A549/ATCC) of 3.42 µM. It also gave a GI50 (MDA-MB-468) of 3.01 µM, a GI50 (U251) of 3.03 µM and a GI50 (CCRF-CEM) of 2.97 µM. The GI50 (SF-539) was 3.37 µM, the GI50 (NCI-H460) was 2.97 µM and the GI50 (UACC-62) was 2.35 µM. It also gave a GI50 (HOP-62) of 3.21 µM, a GI50 (EKVX) of 3.45 µM and a GI50 (SR (leukemia cell line)) of 2.98 µM. The GI50 (OVCAR-3) was 2.56 µM, the GI50 (CAKI-1) was 2.76 µM and the GI50 (TK-10) was 8.27 µM. The GI50 (NCI-H522) was 3.04 µM, the GI50 (HL-60 (TB)) was 2.24 µM and the GI50 (HCT-15) was 3.15 µM. It also gave a GI50 (SW-620) of 3.61 µM, a GI50 (MOLT-4) of 1.99 µM and a GI50 (SNB-19) of 5.62 µM. It also gave a GI50 (SK-MEL-2) of 4.21 µM, a GI50 (ACHN) of 3.72 µM and a GI50 (HOP-92) of 1.76 µM. The GI50 (HS 578T) was 2.27 µM.
In the case of `COc1ccc2[nH]c(-c3ccc(-c4noc(-c5cc(OC)c(OC)c(OC)c5)n4)cc3)nc2c1` [5i, 3-(4-(5-Methoxy-1H-benzo[d]imidazol-2-yl)phenyl)-5-(3,4,5-trimethoxyphenyl)-1,2,4-oxadiazole], the GI50 (MALME-3M) is reported as 1.67 µM, the GI50 (NCI/ADR-RES) is reported as 3.32 µM and the GI50 (NCI-H226) is reported as 2.27 µM. The GI50 (IGROV 1) was 26.3 µM, the GI50 (OVCAR-4) was 1.88 µM and the GI50 (HCT-116) was 1.9 µM. The GI50 (MDA-MB-435) was 4.27 µM, the GI50 (SF-268) was 7.13 µM and the GI50 (NCI-H23) was 4.1 µM. For the same compound, the GI50 (M14) was 5.47 µM, the GI50 (A498) was 28.5 µM and the GI50 (SN 12C) was 13.2 µM. The GI50 (T-47D) was 14.7 µM, the GI50 (DU-145) was 9.48 µM and the GI50 (SF-295) was 15 µM. It also gave a GI50 (UO-31) of 1.89 µM, a GI50 (SNB-75) of 12.5 µM and a GI50 (SK-MEL-5) of 3.25 µM. The GI50 (PC-3) was 240 µM, the GI50 (MDA-MB-231/ATCC) was 2.65 µM and the GI50 (A549/ATCC) was 5.65 µM. For the same compound, the GI50 (MDA-MB-468) was 6.54 µM, the GI50 (U251) was 1.68 µM and the GI50 (CCRF-CEM) was 2.2 µM. For the same compound, the GI50 (SF-539) was 2 µM, the GI50 (NCI-H460) was 4.6 µM and the GI50 (UACC-62) was 14 µM. The GI50 (HOP-62) was 4.44 µM, the GI50 (EKVX) was 26.2 µM and the GI50 (SR (leukemia cell line)) was 0.71 µM. For the same compound, the GI50 (OVCAR-3) was 42.5 µM, the GI50 (CAKI-1) was 23.4 µM and the GI50 (TK-10) was 4.62 µM. The GI50 (NCI-H522) was 6.89 µM, the GI50 (HL-60 (TB)) was 2.02 µM and the GI50 (HCT-15) was 1.49 µM. The GI50 (SW-620) was 5.89 µM, the GI50 (MOLT-4) was 5.29 µM and the GI50 (SNB-19) was 1.27 µM. The GI50 (SK-MEL-2) was 18.9 µM, the GI50 (ACHN) was 28.2 µM and the GI50 (HOP-92) was 14.3 µM. For the same compound, the GI50 (HS 578T) was 9.49 µM.
